Laboratory results as given in PubChem BioAssay AID1963875 (Molecular Pharmacology Branch, DTP, NCI, 2024).

System: KRAS-mutant PDC complex spheroid viability
Test: Anticancer human tumor 186277-243-T-J2-PDC patient-derived colon adenocarcinoma cell line growth inhibition [KRAS2]
Settings: for IC50: curve of first compound; for viability, T/C: stronger effect = lower value
Source text: Multicellular complex tumor spheroid response to RAS pathway inhibitors in combination with a targeted agents in patient-derived cell lines with oncogenic KRAS variants from multiple cancer types
A high-throughput screen of multi-cell type tumor spheroids was designed to identify active combinations of targeted small molecules and KRAS pathway inhibitors. Complex spheroids include a stromal component modeled by human endothelial cells (HUVEC) and fibroblasts modeled by human mesenchymal stem cells (MSCs). The concentration ranges selected for each drug and investigational agent were based upon clinically achievable concentrations if the clinical Cmax of the agent was known.
Compounds. The drugs and investigational agents: BI-3406 (NSC825286), BAY-293 (NSC824723), batoprotafib (TNO155; NSC825523), sotorasib (AMG 510; NSC818433), MRTX1257 (NSC819558), elimusertib (BAY 1895344; NSC800525), molibresib (GSK525762; NSC774829), temuterkib (LY3214996; NSC803410), venetoclax (NSC766270), alisertib (NSC759677), olaparib (NSC753686), talazoparib (NSC767125), erdafitinib (NSC781556), ipatasertib (NSC767898), cabozantinib (NSC761068), nintedanib (NSC756659), abemaciclib (NSC768073), docetaxel (NSC628503), trametinib (NSC758246), and sapanisertib (NSC764658) were obtained from the National Cancer Institute (NCI) Developmental Therapeutics Program Chemical Repository. The FDA-approved anticancer drug set is available from the Developmental Therapeutics Program. […] The stock solutions were prepared in dimethyl sulfoxide (DMSO, Sigma-Aldrich, St. Louis, MO, cat. D2650) at 800-fold the tested concentration and stored at -70 degrees C prior to their use. All drugs and investigational agents were tested over a range starting from a high concentration at or near the clinical Cmax and decreasing in half-log increments. If the clinical Cmax for an agent had not been determined, the highest concentration tested was 10 microM.
Cell Culture. All cells were maintained in an incubator at 37 degrees C and 5% CO2 with 95% humidity. The PDC lines were cultured according to standard operating procedures established by the NCI PDMR (https://pdmr.cancer.gov/sops/default.htm). Briefly, all PDCs were thawed and cultured in Matrigel-coated flasks prepared with a working solution of 1X Ham's F-12 nutrient mix, without supplementation (Invitrogen, Waltham, MA, cat. 11765054), 100 U/mL penicillin-streptomycin (Invitrogen, cat. 15140122), and 2.5% Matrigel (Corning Inc., Corning, NY, cat. 354248) for the first three passages. All PDCs were cultured in complete DMEM/F-12 media containing advanced DMEM/F-12 (Invitrogen, cat. 12634028), 4.9% defined fetal bovine serum, heat inactivated (HyClone Laboratories Inc., Logan, UT, cat. SH30070.03HI), 389 ng/mL hydrocortisone (Sigma-Aldrich, cat. H4001), 9.7 ng/mL human EGF recombinant protein (Invitrogen, cat. PHG0313), 23.4 microg/mL adenine (Sigma-Aldrich, cat. A2786), 97.3 U/mL penicillin-streptomycin (Invitrogen, cat. 15140122), 1.9 mM L-glutamine (Invitrogen, cat. 25030081), and 9.7 microM Y-27632 dihydrochloride (Tocris Bioscience, Bristol, United Kingdom, cat. 1254). The PDCs were cultured in complete DMEM/F12 media without 9.7 microM Y-27632 dihydrochloride for at least two passages prior to the screen. The established cell line HOP-62 was cultured in RPMI 1640 medium, HEPES (Invitrogen, cat. 22400105) with 10% defined fetal bovine serum (HyClone Laboratories Inc., cat. SH30070.03) and 2 mM L-glutamine (Invitrogen, cat. 25030081). The pooled donor HUVEC were cultured in endothelial cell growth medium 2 (PromoCell, Heidelberg, Germany, cat. C-22011) and the hMSC were cultured in mesenchymal stem cell growth medium 2 (PromoCell, cat. C-28009). For all experiments, HUVEC and hMSC were used at passages </=5, while the malignant cell lines were used at passages </=15. […]

[1] = second compound 0.1 µM, first compound 0.0316 µM
[2] = second compound 0.1 µM, first compound 0.1 µM
[3] = second compound 0.316 µM, first compound 0.0316 µM
[4] = second compound 0.316 µM, first compound 0.1 µM
[5] = second compound 1 µM, first compound 0.0316 µM
[6] = second compound 1 µM, first compound 0.1 µM
[7] = second compound 3.16 µM, first compound 0.0316 µM
[8] = second compound 3.16 µM, first compound 0.1 µM
[9] = second compound 10 µM, first compound 0.0316 µM
[10] = second compound 10 µM, first compound 0.1 µM
[11] = second compound 0.1 µM, first compound 0.316 µM
[12] = second compound 0.1 µM, first compound 1 µM
[13] = second compound 0.1 µM, first compound 3.16 µM
[14] = second compound 0.1 µM, first compound 10 µM
[15] = second compound 0.316 µM, first compound 0.316 µM
[16] = second compound 0.316 µM, first compound 1 µM
[17] = second compound 0.316 µM, first compound 3.16 µM
[18] = second compound 0.316 µM, first compound 10 µM
[19] = second compound 1 µM, first compound 0.316 µM
[20] = second compound 1 µM, first compound 1 µM
[21] = second compound 1 µM, first compound 3.16 µM
[22] = second compound 1 µM, first compound 10 µM
[23] = second compound 3.16 µM, first compound 0.316 µM
[24] = second compound 3.16 µM, first compound 1 µM
[25] = second compound 3.16 µM, first compound 3.16 µM
[26] = second compound 3.16 µM, first compound 10 µM
[27] = second compound 10 µM, first compound 0.316 µM
[28] = second compound 10 µM, first compound 1 µM
[29] = second compound 10 µM, first compound 3.16 µM
[30] = second compound 10 µM, first compound 10 µM
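Wherever viability, T/C is given: viability read after seven days of compound exposure; 100% = DMSO vehicle-treated spheroids so lower means less viable.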

SMILES	IC50 (second compound 0.1 µM) [nM]	IC50 (second compound 0.316 µM) [nM]	IC50 (second compound 1 µM) [nM]	IC50 (second compound 3.16 µM) [nM]	IC50 (second compound 10 µM) [nM]	viability, T/C [1] [%]	viability, T/C [2] [%]	viability, T/C [3] [%]	viability, T/C [4] [%]	viability, T/C [5] [%]	viability, T/C [6] [%]	viability, T/C [7] [%]	viability, T/C [8] [%]	viability, T/C [9] [%]	viability, T/C [10] [%]	viability, T/C [11] [%]	viability, T/C [12] [%]	viability, T/C [13] [%]	viability, T/C [14] [%]	viability, T/C [15] [%]	other results
CC(C)n1nc(-c2ccc3oc(N)nc3c2)c2c(N)ncnc21 + C=CC(=O)N1CCN(c2nc(=O)n(-c3c(C)ccnc3C(C)C)c3nc(-c4c(O)cccc4F)c(F)cc23)C(C)C1	12.6	17.6	9.05	4.66	< 0.316	32.7	19.5	34.2	18.9	27.3	20.1	20.1	13.9	14.7	7.97	–	–	–	–	–	viability, T/C (second compound 0.1 µM, first compound 0.000316 µM): 94.8%; viability, T/C (second compound 0.1 µM, first compound 0.001 µM): 93.1%; viability, T/C (second compound 0.1 µM, first compound 0.00316 µM): 86.1%; viability, T/C (second compound 0.1 µM, first compound 0.01 µM): 52.6%; viability, T/C (second compound 0.316 µM, first compound 0.000316 µM): 113%; viability, T/C (second compound 0.316 µM, first compound 0.001 µM): 103%; viability, T/C (second compound 0.316 µM, first compound 0.00316 µM): 87.7%; viability, T/C (second compound 0.316 µM, first compound 0.01 µM): 65.6%; viability, T/C (second compound 1 µM, first compound 0.000316 µM): 97.5%; viability, T/C (second compound 1 µM, first compound 0.001 µM): 107%; viability, T/C (second compound 1 µM, first compound 0.00316 µM): 75.8%; viability, T/C (second compound 1 µM, first compound 0.01 µM): 48.9%; viability, T/C (second compound 3.16 µM, first compound 0.000316 µM): 98%; viability, T/C (second compound 3.16 µM, first compound 0.001 µM): 89.4%; viability, T/C (second compound 3.16 µM, first compound 0.00316 µM): 58.6%; viability, T/C (second compound 3.16 µM, first compound 0.01 µM): 31.1%; viability, T/C (second compound 10 µM, first compound 0.000316 µM): 45.9%; viability, T/C (second compound 10 µM, first compound 0.001 µM): 44.6%; viability, T/C (second compound 10 µM, first compound 0.00316 µM): 34.7%; viability, T/C (second compound 10 µM, first compound 0.01 µM): 16.9%
CC1(C)CCC(CN2CCN(c3ccc(C(=O)NS(=O)(=O)c4ccc(NCC5CCOCC5)c([N+](=O)[O-])c4)c(Oc4cnc5[nH]ccc5c4)c3)CC2)=C(c2ccc(Cl)cc2)C1 + C=CC(=O)N1CCN(c2nc(=O)n(-c3c(C)ccnc3C(C)C)c3nc(-c4c(O)cccc4F)c(F)cc23)C(C)C1	1890	2100	1950	1690	373	107	89.6	97.7	104	97.8	97.9	99.9	110	61.1	69.4	90.8	108	10.6	0.45	102	viability, T/C [16]: 98.5%; viability, T/C [17]: 23.3%; viability, T/C [18]: 1.48%; viability, T/C [19]: 94.1%; viability, T/C [20]: 106%; viability, T/C [21]: 14.3%; viability, T/C [22]: 0.49%; viability, T/C [23]: 96.7%; viability, T/C [24]: 85%; viability, T/C [25]: 8.01%; viability, T/C [26]: 0.76%; viability, T/C [27]: 48.6%; viability, T/C [28]: 32%; viability, T/C [29]: 1.91%; viability, T/C [30]: 0.62%
COc1cc2nccc(Oc3ccc(NC(=O)C4(C(=O)Nc5ccc(F)cc5)CC4)cc3)c2cc1OC + C=CC(=O)N1CCN(c2nc(=O)n(-c3c(C)ccnc3C(C)C)c3nc(-c4c(O)cccc4F)c(F)cc23)C(C)C1	1880	1770	1320	823	101	95.2	94.8	93	85.5	98	92.4	94.5	103	49.9	52.7	100	93.7	13.1	15.4	98.2	viability, T/C [16]: 86.1%; viability, T/C [17]: 12.3%; viability, T/C [18]: 14%; viability, T/C [19]: 101%; viability, T/C [20]: 61.8%; viability, T/C [21]: 12.4%; viability, T/C [22]: 13.7%; viability, T/C [23]: 91.2%; viability, T/C [24]: 41.8%; viability, T/C [25]: 9.95%; viability, T/C [26]: 11.2%; viability, T/C [27]: 32.3%; viability, T/C [28]: 9.14%; viability, T/C [29]: 2.99%; viability, T/C [30]: 3.53%
